Measured values reported in patent US20100129805A1, “SLC1A1 ANTIPSYCHOTIC DRUG RESPONSE MARKERS” (priority 2006, published 2010).

Tested on: patients with DSM-III-R or DSM-IV diagnoses of SCZ refractory or intolerant to conventional antipsychotics
Assay: Clozapine response after 6 months treatment (% score change on BPRS, BPOS, BNEG) by SLC1A1 genotype/haplotype
Format: in vivo, human
Conditions: 6 months clozapine
Excerpt: Effect of 5 Single Nucleotide Polymorphisms (SNPs) Across the SLC1A1 Gene on Clozapine (CZ) Response After 6 Months Treatment in Two Distinct Schizophrenic Populations (Caucasian and African-American) Refractory or Intolerant to Conventional Antipsychotics.
97 patients (73 Caucasians and 24 African-Americans) with DSM-III-R or DSM-IV diagnoses of SCZ assessed from Case Western Reserve University, Cleveland, Ohio.
No significant differences were observed between Caucasians and African-Americans in terms of gender ratio (P=0.234) or mean age (P=0.561). Almost all subjects met criteria for treatment refractoriness or intolerance to typical antipsychotic therapy as defined by Kane et al (1988). Patients underwent a washout period of 2 to 4 weeks during which, unless clinically necessary, they received no medications before starting clozapine (CZ). CZ treatment was continued for a minimum of 6 months during which patients were evaluated prospectively. CZ blood levels were monitored throughout course of treatment to ascertain compliance,
Treatment response is evaluated as a percentage (%) score change from baseline using the 18-item Brief Psychiatric Rating Scale (BPRS), a 4-item positive symptom subscale (BPOS) and 3-item negative symptom subscale (BNEG)—after 6 months of clozapine treatment. % score change=(6 months score−baseline score)/Baseline score. A negative value of % score change in each scale would indicate an improvement in symptoms measured by that particular scale.
Blood samples were collected from clinical sites and sent to the Centre for Addiction and Mental Health (CAMH) in Toronto, ON, Canada—where genotyping of patients' DNA was performed by 5′-exonuclease fluorescence assays. The 5 informative SNPs (minor allele frequency>20%) spanning SLC1A1 were chosen based on location (see Table 1)—with 2 in coding regions and 3 from different intronic regions and different haplotype blocks. Laboratory staff was blind to the psychiatric ratings.
Within each ethnic population, individual SNP analyses of % score changes (continuous data) were performed using Analysis of Variance (ANOVA) in STATA ver7.0. Haplotype analysis of unphased quantitative data was performed using QTPHASE (Dudbridge, 2003).

Compound: CN1CCN(C2=Nc3cc(Cl)ccc3Nc3ccccc32)CC1 [clozapine]
- Mean BPOS % score change (haplotype 1-1-1 in SNP window 1-2-3, Caucasians and African-Americans combined): −0.198
- Mean BNEG % score change (haplotype 1-1 in SNP window 4-5, African-Americans): −0.379
- Mean BNEG % score change (haplotype 1-2-1 in SNP window 3-4-5, African-Americans): 0.086
- Mean BNEG % score change (haplotype 1-2 in SNP window 3-4, African-Americans): 0.143
- Mean BNEG % score change (haplotype 2-1-1 in SNP window 2-3-4, Caucasians): 0.295
- Mean BNEG % score change (haplotype 2-1-1 in SNP window 3-4-5, African-Americans): −0.379
- Mean BNEG % score change (haplotype 2-1 in SNP window 3-4, African-Americans): −0.341
- Mean BNEG % score change (haplotype 2-1 in SNP window 4-5, African-Americans): 0.107
- Mean BNEG % score change (haplotype 2-2-1 in SNP window 1-2-3, Caucasians and African-Americans combined): 0.592
- Mean BNEG % score change (haplotype 2-2-1 in SNP window 1-2-3, Caucasians): 0.889
- Mean BNEG % score change (rs301434 genotype C/C, Caucasians & African-Americans combined): −0.115
- Mean BPRS % score change (rs301434 genotype C/C, Caucasians, negative = improvement): −0.248
- Mean BNEG % score change (rs301434 genotype T/C, Caucasians & African-Americans combined): −0.136
- Mean BPRS % score change (rs301434 genotype T/C, Caucasians, negative = improvement): −0.310
- Mean BNEG % score change (rs301434 genotype T/T, Caucasians & African-Americans combined): 0.636
- Mean BPRS % score change (rs301434 genotype T/T, Caucasians, negative = improvement): 1.310
- Mean BNEG % score change (rs1980943 genotype A/A, African-Americans, negative = improvement): 3.000
- Mean BNEG % score change (rs1980943 genotype G/A, African-Americans, negative = improvement): −0.378
- Mean BNEG % score change (rs1980943 genotype G/G, African-Americans, (6 months score-baseline score)/baseline score, negative = improvement): 0.067
